Assay results: patent US20240391882A1 (Mirati Therapeutics, Inc., priority 2023, published 2024)
Like-named read-outs stand apart in the source and are kept apart here.

Experiments:
Type in all cases: cell-based
[1] = tested on: T47D (PI3Kα H1047R mutant) cells; assay: Cell viability (CellTiter-Glo 2.0) in T47D cells; details: Homo sapiens, approximately 72 hours
Outline: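 SKBR3 or T47D cells, 1000 per well, were seeded overnight and then exposed ~72 h at 37° C to 10 concentrations of compound, 1:4 dilutions from 10 μm. Viability read by CellTiter-Glo luminescence as percent of vehicle; IC50 from four-parameter variable-slope fit.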

[2] = tested on: pAKT in T47D (PI3Kα H1047R mutant) cells; assay: Inhibition of pAKT (alphaLISA Surefire Ultra AKT 1/2/3 pS473) in T47D cells; details: Homo sapiens, read-out: T47D (H1047R) pAKT 24 hr (IC50)
Protocol: The ability of a compound of Formula (I) to inhibit the formation of pAKT was measured using alphaLISA Surefire Ultra AKT 1/2/3 (pS473) Assay Kit (#ALSU-PAKT-B50K) was obtained from Perkin Elmer (Waltham, MA).
To prepare assay plates for pAKT alphaLISA assays, cells were trypsinized, resuspended in fresh media, and viable cells were counted utilizing trypan blue exclusion. Prior to seeding, cells were washed with PBS and resuspended in HBSS (Gibco, #14025092). T47D (12,000/w), SKBR3 (12,000/w), or MKN1 (24,000/w) cells were seeded at 12 μl per well in a solid white flat bottom 384 cell culture plate (Perkin Elmer #6007680).
Immediately after seeding, cells were dosed using an Echo Liquid Handler (Beckman Coulter) with compounds at a 10.4 μm starting concentration and serially diluted (1:4) for a total of 10 concentrations. 14 vehicle (DMSO) and 14 positive control (Alpelisib @3.125 μm) wells were included on each assay plate. Cells were incubated with the compounds (solubilized in DMSO) for approximately 24 hours at 37° C. After 24 hours of treatment, cells were lysed with 3 μl of the 5× lysis buffer (provided and incubated at room temperature for 15 min on a microtiter plate shaker). Once cells were sufficiently lysed, 7.5 μl of the acceptor bead mix (made using the manufacturers recommended dilutions) was added to each well and left on the microtiter plate shaker for 1 min prior to incubating plates at room temperature for 1 hour, in the absence of light. After 1 hour of incubation with the acceptor bead mix, 7.5 μl of the donor bead mix (made using the manufacturers recommended dilutions) was added to each well and left on the microtiter plate shaker for 1 min prior to incubating plates at room temperature overnight in the absence of light. Plates were then imaged the following day using a CLARIOstar microplate reader (BMG Labtech, Germany).
Percent of control values were calculated by subtracting the average signal from the positive control (alpelisib) treated wells from all treated wells (including DMSO control wells) and then divided by the average signal from the vehicle DMSO treated control wells. Percent of vehicle control values were plotted as log(inhibitor) vs. response—Variable slope (four parameters) for curve fitting and IC50 values were determined using XLfit.

[3] = tested on: SKBR3 (PI3Kα wild type) cells; assay: Cell viability (CellTiter-Glo 2.0) in SKBR3 cells; details: Homo sapiens
Protocol: This Example illustrates that representative compounds of the invention decrease the viability of cells.
The ability of a compound of Formula (I) to decrease the viability of cells was measured using CellTiter-Glo 2.0 (CTG) Luminescent Cell Viability Assay (#G9241) obtained from Promega (Madison, WI).
To prepare assay plates for viability assays, cells were trypsinized, resuspended in fresh media, and viable cells were counted utilizing trypan blue exclusion. T47D, SKBR3, or MKN1 cells were seeded at 1000 cells in 30 μl per well in a solid white flat bottom 384 cell culture plate (Perkin Elmer #6007680) and incubated at 37° C. overnight.
Assay day 1, cells were dosed using an Echo Liquid Handler (Beckman Coulter) with compounds at a 10 μm starting concentration and serially diluted (1:4) for a total of 10 concentrations. Cells were incubated for approximately 72 hours with the compounds (solubilized in DMSO) at 37° C. After 72 hours of treatment, cell plates were equilibrated to room temperature before adding 15 μl of CTG to each well, plates were then covered in aluminum foil to protect from light, incubated at room temperature for 30 minutes on a microtiter plate shaker, and luminescence readings were collected using a CLARIOstar microplate reader (BMG Labtech, Germany). Percent of vehicle control values were plotted as log(inhibitor) vs. response—Variable slope (four parameters) for curve fitting and IC50 values were determined using XLfit.

[4] = T47D (PI3Kα H1047R mutant) cells, 24 hr compound incubation, alphaLISA pS473
[5] = SK-BR-3, SKBR3 (PI3Kα wild type) cells, approximately 72 hours, CellTiter-Glo 2.0, read-out: SKBR3 (WT) Viability IC50

IC50 ([1]; T47D, 72 h)	IC50 [2, 4]	IC50 [3, 5]	Compound	IC50 [1]	IC50 ([2]; T47D, 24 h)	IC50 ([3]; SK-BR-3, 72 h, read-out: SKBR3 (WT) Viability IC50 (nM))
> 10000 nM	561 nM	> 10000 nM	C[C@H](Nc1ccccc1C(=O)O)c1cc(F)cc2nc(C#N)c(N3CCC(F)(F)CC3)nc12 [Example 31, (S)-2-((1-(2-cyano-3-(4,4-difluoropiperidin-1-yl)-7-fluoroquinoxalin-5-yl)ethyl)amino)benzoic acid]	–	–	–
84.4 nM	0.17 nM	> 10000 nM	Cc1cc([C@@H](C)Nc2ccc(Cl)nc2C(=O)O)c2nc(C3CCOCC3)c(C#N)nc2c1 [Example 233, (R)-6-chloro-3-((1-(2-cyano-7-methyl-3-(tetrahydro-2H-pyran-4-yl)quinoxalin-5-yl)ethyl)amino)picolinic acid]	–	–	–
46 nM	0.97 nM	3400 nM	Cc1cc([C@@H](C)Nc2ccc(Cl)nc2C(=O)O)c2nc(N3C[C@H](F)C[C@H]3C)c(C#N)nc2c1 [Example 246C, 6-chloro-3-(((R)-1-(2-cyano-3-((2R,4R)-4-fluoro-2-methylpyrrolidin-1-yl)-7-methylquinoxalin-5-yl)ethyl)amino)picolinic acid]	–	–	–
197 nM	5.6 nM	6850 nM	Cc1cc([C@@H](C)Nc2ccc(Cl)nc2C(=O)O)c2nc(N3CC[C@@]4(CCCO4)C3)c(C#N)nc2c1 (single isomer, unassigned) [Example 253A]	–	–	–
–	–	–	Cc1cc([C@@H](C)Nc2ccccc2C(=O)O)c2nc(N3Cc4ccccc4C3)c(C#N)nc2c1 [Example 6, (R)-2-((1-(2-cyano-3-(isoindolin-2-yl)-7-methylquinoxalin-5-yl)ethyl)amino)benzoic acid]	294 nM	5 nM	> 10000 nM
687 nM	72 nM	2770 nM	Cc1cc([C@@H](C)Nc2ccccc2C(=O)O)c2nc(C3CC3)c(C#N)nc2c1 [Example 67, (R)-2-((1-(2-cyano-3-cyclopropyl-7-methylquinoxalin-5-yl)ethyl)amino)benzoic acid]	–	–	–
62.1 nM	1.2 nM	> 10000 nM	CO[C@H]1CCCN(c2nc3c([C@@H](C)Nc4ccc(Cl)nc4C(=O)O)cc(C)cc3nc2C#N)C1 [Example 196A, 6-chloro-3-(((R)-1-(2-cyano-3-((S)-3-methoxypiperidin-1-yl)-7-methylquinoxalin-5-yl)ethyl)amino)picolinic acid]	–	–	–
137 nM	4.3 nM	8170 nM	Cc1cc([C@@H](C)Nc2ccc(Cl)nc2C(=O)O)c2nc(N3C[C@@H](C)OC[C@H]3C)c(C#N)nc2c1 [Example 237A, 6-chloro-3-(((R)-1-(2-cyano-3-((2R,5R)-2,5-dimethylmorpholino)-7-methylquinoxalin-5-yl)ethyl)amino)picolinic acid]	–	–	–
513 nM	38.6 nM	> 10000 nM	Cc1cc([C@@H](C)Nc2ccccc2C(=O)O)c2nc(N3CCC(C)(C)CC3)c(C#N)nc2c1 [Example 61, (R)-2-((1-(2-cyano-3-(4,4-dimethylpiperidin-1-yl)-7-methylquinoxalin-5-yl)ethyl)amino)benzoic acid]	–	–	–
183 nM	4.7 nM	> 10000 nM	C[C@@H](Nc1ccccc1C(=O)O)c1cc(Cl)cc2nc(C#N)c(N3CCC(F)(F)CC3)nc12 [Example 30, (R)-2-((1-(7-chloro-2-cyano-3-(4,4-difluoropiperidin-1-yl)quinoxalin-5-yl)ethyl)amino)benzoic acid]	–	–	–
631 nM	18.2 nM	> 10000 nM	Cc1cc(C(C)Nc2ccccc2C(=O)O)c2nc(N3Cc4ccccc4C3)c(C#N)nc2c1 (centres unmarked) [Example 2, 2-((1-(2-cyano-3-(isoindolin-2-yl)-7-methylquinoxalin-5-yl)ethyl)amino)benzoic acid]	–	–	–
165 nM	14 nM	> 10000 nM	Cc1cc([C@@H](C)Nc2ccccc2C(=O)O)c2nc(N3CCOCC3)c(C#N)nc2c1 [Example 57, (R)-2-((1-(2-cyano-7-methyl-3-morpholinoquinoxalin-5-yl)ethyl)amino)benzoic acid]	–	–	–
105 nM	1.8 nM	> 10000 nM	Cc1cc([C@@H](C)Nc2ccccc2C(=O)O)c2nc(N3CCN(C(=O)C[C@@H]4CC4(F)F)CC3)c(C#N)nc2c1 (single isomer, unassigned) [Example 197]	–	–	–
> 10000 nM	1140 nM	> 10000 nM	C[C@H](Nc1ccccc1C(=O)O)c1cc(C#N)cc2nc(C#N)c(N3CCC(F)(F)CC3)nc12 [Example 27, (S)-2-((1-(2,7-dicyano-3-(4,4-difluoropiperidin-1-yl)quinoxalin-5-yl)ethyl)amino)benzoic acid]	–	–	–
84.4 nM	–	> 10000 nM	Cc1cc([C@@H](C)Nc2ccc(Cl)nc2C(=O)O)c2nc(N3CCC(F)(F)[C@@H](C)C3)c(C#N)nc2c1 [Example 78B, 6-chloro-3-(((R)-1-(2-cyano-3-((S)-4,4-difluoro-3-methylpiperidin-1-yl)-7-methylquinoxalin-5-yl)ethyl)amino)picolinic acid]	–	–	–
270 nM	–	> 10000 nM	Cc1cc([C@@H](C)Nc2ccccc2C(=O)O)c2nc(N3CCc4cc(C#N)ccc4C3)c(C#N)nc2c1 [Example 86, (R)-2-((1-(2-cyano-3-(6-cyano-3,4-dihydroisoquinolin-2(1H)-yl)-7-methylquinoxalin-5-yl)ethyl)amino)benzoic acid]	–	–	–
160 nM	–	> 10000 nM	Cc1cc([C@@H](C)Nc2ccc(Cl)nc2C(=O)O)c2nc(N3CCCC(F)(F)C3)c(C#N)nc2c1 [Example 12, (R)-6-chloro-3-((1-(2-cyano-3-(3,3-difluoropiperidin-1-yl)-7-methylquinoxalin-5-yl)ethyl)amino)picolinic acid]	–	–	–
343 nM	–	> 10000 nM	Cc1cc([C@@H](C)Nc2ccccc2C(=O)O)c2nc(N3CCc4ccccc4C3)c(C#N)nc2c1 [Example 84, (R)-2-((1-(2-cyano-3-(3,4-dihydroisoquinolin-2(1H)-yl)-7-methylquinoxalin-5-yl)ethyl)amino)benzoic acid]	–	–	–
298 nM	–	> 10000 nM	CO[C@H]1CCN(c2nc3c([C@@H](C)Nc4ccccc4C(=O)O)cc(C)cc3nc2C#N)C1 (single isomer, unassigned) [Example 72A]	–	–	–
216 nM	–	> 10000 nM	Cc1cc([C@@H](C)Nc2ccc(Cl)nc2C(=O)O)c2nc(N3CC[S+]([O-])CC3)c(C#N)nc2c1 [Example 107, (R)-6-chloro-3-((1-(2-cyano-7-methyl-3-(1-oxidothiomorpholino)quinoxalin-5-yl)ethyl)amino)picolinic acid]	–	–	–
120 nM	–	> 10000 nM	Cc1cc([C@@H](C)Nc2ccc(Cl)nc2C(=O)O)c2nc(NCC3(C(F)(F)F)CC3)c(C#N)nc2c1 [Example 15, (R)-6-chloro-3-((1-(2-cyano-7-methyl-3-(((1-(trifluoromethyl)cyclopropyl)methyl)amino)quinoxalin-5-yl)ethyl)amino)picolinic acid]	–	–	–
